Data reported in patent publication US9512074B2, “Radiolabeled inhibitors of the amino acid transporters ASCT1 and ASCT2” (The University of Montana, priority 2011, dated 2016).

How the values were obtained:
Human ASCT1 = molecular target: T1, Human ASCT1 (Homo sapiens, UniProt P43007); assay: Inhibition of anion leak current, two-electrode voltage clamp in Xenopus oocytes expressing human ASCT1; format: cell-based; conditions: for Ki: Xenopus oocytes expressing human ASCT1, held at −20 mV, * = actual Ki, others Ki estimates, read-out: Ki (μM) ACST1
T1 construct: expressed in transfected cells; host or cells: Xenopus laevis oocytes (cRNA microinjection)
T1 sequence (P43007 1-532): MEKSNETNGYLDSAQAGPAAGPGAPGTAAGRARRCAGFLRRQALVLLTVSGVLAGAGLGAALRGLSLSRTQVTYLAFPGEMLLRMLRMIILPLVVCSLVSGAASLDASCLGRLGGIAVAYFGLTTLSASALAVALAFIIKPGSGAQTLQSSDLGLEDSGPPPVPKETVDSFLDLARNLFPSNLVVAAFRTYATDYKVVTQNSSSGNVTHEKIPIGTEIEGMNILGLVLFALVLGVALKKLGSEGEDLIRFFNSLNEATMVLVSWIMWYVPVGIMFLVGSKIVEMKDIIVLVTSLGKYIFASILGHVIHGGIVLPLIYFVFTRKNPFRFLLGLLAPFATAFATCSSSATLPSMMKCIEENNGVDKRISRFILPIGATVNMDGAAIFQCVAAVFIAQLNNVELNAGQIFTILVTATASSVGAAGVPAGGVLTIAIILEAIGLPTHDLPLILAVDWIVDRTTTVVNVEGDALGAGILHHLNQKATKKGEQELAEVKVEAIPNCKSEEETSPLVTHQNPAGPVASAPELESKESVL
Protocol: (§1) Human ASCT1 and murine ASCT2 cRNA were microinjected in stage V-VI oocytes. Uncoupled anion currents associated with the transport of substrate were recorded 3-5 days later as previously described (Zerangue & Kavanaugh, 1996). Recording solution contained 50 mM NaCl, 50 mM NaSCN, 2 mM KCl, 1 mM MgCl2, 1.8 mM CaCl2, and 5 mM HEPES (pH 7.4). Using two-electrode voltage clamp (TEVC), oocytes were held at −20 mV. Microelectrodes were filled with 3M KCl and had resistances from 1 to 3 MΩ. Recordings were performed at 22° C. with a Geneclamp 500 amplifier connected to a PowerLab 2/26 (AD instruments). The digital output was interfaced to a MacBook Pro (Macintosh) using Chart v7.1.2 software. The currents were low-pass filtered at 10 Hz and acquired at 20 Hz. Data was analyzed offline and modeling and fitting of substrate concentration-dependence of the currents was performed with Kaleidagraph software (v 4.04). The concentration dependent percent block of the anion leak or substrate activation of the anion current were fit with the Michaelis-Menten equation (Ianion=Imax×[Drug]/(Km+[Drug])) to define the Ki of inhibition or the apparent affinity (Km) of transport, respectively.

murine ASCT2 = molecular target: T2, murine ASCT2 (Mus musculus, UniProt P51912); assay: Inhibition of anion leak current, two-electrode voltage clamp in Xenopus oocytes expressing mouse ASCT2; format: cell-based; conditions: for Ki: Xenopus oocytes expressing mouse ASCT2, held at −20 mV, * = actual Ki, others Ki estimates
T2 construct: expressed in transfected cells; host or cells: Xenopus laevis oocytes (cRNA microinjection)
T2 sequence (P51912 1-553): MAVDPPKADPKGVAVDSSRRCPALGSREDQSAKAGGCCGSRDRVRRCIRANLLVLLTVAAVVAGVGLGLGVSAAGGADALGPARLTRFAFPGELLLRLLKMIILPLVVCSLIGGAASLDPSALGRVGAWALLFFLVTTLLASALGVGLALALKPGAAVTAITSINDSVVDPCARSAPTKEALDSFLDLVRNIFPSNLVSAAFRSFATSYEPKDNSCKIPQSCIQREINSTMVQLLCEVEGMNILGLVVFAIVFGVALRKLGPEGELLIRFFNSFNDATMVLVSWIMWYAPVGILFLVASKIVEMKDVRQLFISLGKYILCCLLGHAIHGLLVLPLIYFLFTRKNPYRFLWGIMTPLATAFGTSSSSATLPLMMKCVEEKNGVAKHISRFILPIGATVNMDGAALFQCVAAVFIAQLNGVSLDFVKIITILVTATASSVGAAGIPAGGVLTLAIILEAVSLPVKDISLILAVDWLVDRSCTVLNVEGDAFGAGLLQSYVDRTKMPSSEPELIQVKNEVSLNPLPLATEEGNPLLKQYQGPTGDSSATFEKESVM
Protocol: as §1

[1] = 300 μM, −20 mV, opposite the current induced by substrate

Row | Structure (SMILES) | Ki (Human ASCT1) [µM] | Ki (murine ASCT2) [µM] | block of leak current in mASCT2 (FIG. 4) (murine ASCT2; [1]) | block of leak current in hASCT1 (FIG. 4) (Human ASCT1; [1])
1 | O=C(O)[C@H]1NC[C@@H](Oc2ccccc2)C1O (stereo in doubt) [CSE118, (2S,3S,4R)-3-hydroxy-4-phenoxy-proline] | 150 | 141 | – | –
2 | C[C@]1(O)CN[C@H](C(=O)O)C1 [CSE95, cis-4-methyl-trans-4-hydroxy-L-proline] | > 500 | 926 | – | –
3 | C[C@@]1(O)CN[C@H](C(=O)O)C1 [CSE96, cis-4-hydroxy-trans-4-methyl-L-proline] | > 500 | 1080 | – | –
4 | O=C(O)[C@H]1NC[C@H](O)[C@H]1c1ccccc1 [CSE103, (2S,3S,4R)-3-phenyl-4-hydroxy-proline] | 332 | 1130 | – | –
5 | O=C(O)[C@H]1NC[C@@H](c2ccccc2)[C@@H]1O [CSE104, (2S,3S,4R)-3-hydroxy-4-phenyl-proline] | > 500 | > 500 | – | –
6 | C[C@H]1[C@@H](C(=O)O)NC[C@@H]1O [CSE109] | 564 | 922 | – | –
7 | C[C@@H]1CN[C@H](C(=O)O)[C@H]1O [CSE110] | 1050 | 1150 | – | –
8 | O=C(O)[C@@H]1C[C@H](O)CN1 [CSE111] | 805 | 872 | – | –
9 | O=C(O)[C@H]1NC[C@H](OCc2ccccc2)[C@H]1O [CSE113, cis-3-hydroxy-trans-4-benzyloxy-L-proline] | 493 | 828 | – | –
10 | CO[C@@H]1CN[C@H](C(=O)O)[C@H]1O [CSE115, trans-3-hydroxy-cis-4-methoxy-L-proline] | 214 | 235 | – | –
11 | O=C(O)[C@H]1NC[C@H](O)[C@H]1Oc1ccccc1 [CSE117, (2S,3S,4S)-3-phenoxy-4-hydroxy-proline] | 594 | 502 | – | –
12 | O=C(O)[C@H]1NC[C@@H](OCc2ccccc2)[C@@H]1O [CSE121, trans-3-hydroxy-cis-4-benzyloxy-L-proline] | 39 | 69 | blocking a leak current | –
13 | CC(C)O[C@@H]1CN[C@H](C(=O)O)[C@H]1O [CSE122] | 237 | 268 | – | blocking a leak current
14 | CO[C@H]1CN[C@H](C(=O)O)[C@@H]1O [CSE124] | 481 | 600 | – | –
15 | CC(C)O[C@H]1CN[C@H](C(=O)O)[C@@H]1O [CSE127, cis-3-hydroxy-trans-4-isopropoxy-L-proline] | > 500 | > 500 | – | –
16 | O=C(O)[C@H]1NC[C@@H](OCc2cccc(Oc3ccccc3)c2)[C@@H]1O [CSE130] | 13 | 10 | – | –
17 | O=C(O)[C@H]1NC[C@@H](OCc2ccc(-c3ccccc3)cc2)[C@@H]1O [CSE131, (2S,3R,4R)-3-hydroxy-4-o-methyl-p-biphenyl-proline] | 0.31 | 0.24 | – | –
18 | O=C(O)[C@H]1NC[C@@H](OCc2cccc3ccccc23)[C@@H]1O [CSE132] | ~10 | ~10 | – | –
